Patent publication US10301280B2 (Plexxikon Inc., priority 2012, dated 2019)

System: BaF3-FL KIT D816V or BaF3-FL KIT V560G/D816V cell line
Test: Cell-based assays of c-Kit mutant kinase activity (cell growth, ATPlite)
Conditions: at least one of the c-kit cell assays of Example 26
Method in brief: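 IC50 derived from ATP-content luminescence (ATPlite) after three-day compound exposure at 37° C., 5% CO2. Cells: BaF3 rendered growth-dependent on full-length human KIT D816V or V560G/D816V, 1×10^4 per well, RPMI plus 10% FBS; 8 points, 1:3 steps, maximum 10 μM final, 0.2% DMSO.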

| Compound | IC50 |
| --- | --- |
| CCc1n[nH]c(C(=O)Nc2cnc3[nH]c(-c4ccc(F)cc4)cc3c2)c1C [P-2028, 3-ethyl-N-[2-(4-fluorophenyl)-1H-pyrrolo[2,3-b]pyridin-5-yl]-4-methyl-1H-pyrazole-5-carboxamide] | < 10 µM |
| Cc1[nH]nc(C(=O)Nc2cnc3[nH]c(-c4cccnc4C(F)(F)F)cc3c2)c1C [P-2241, 4,5-dimethyl-N-(2-(2-(trifluoromethyl)pyridin-3-yl)-1H-pyrrolo[2,3-b]pyridin-5-yl)-1H-pyrazole-3-carboxamide] | < 10 µM |
| COc1nccc(-c2cc3cc(NC(=O)c4n[nH]c(C)c4C)cnc3[nH]2)c1Cl [P-2249, N-(2-(3-chloro-2-methoxypyridin-4-yl)-1H-pyrrolo[2,3-b]pyridin-5-yl)-4,5-dimethyl-1H-pyrazole-3-carboxamide] | < 10 µM |
| Cc1n[nH]c(C(=O)Nc2cnc3[nH]c(-c4ccc(C(=O)N5CCOCC5)cc4)cc3c2)c1C [P-2138, 3,4-dimethyl-N-[2-[4-(morpholine-4-carbonyl)phenyl]-1H-pyrrolo[2,3-b]pyridin-5-yl]-1H-pyrazole-5-carboxamide] | < 10 µM |
| Cc1n[nH]c(C(=O)Nc2cnc3[nH]c(-c4cccc(C(=O)N5CCOCC5)c4)cc3c2)c1C [P-2106, 3,4-dimethyl-N-[2-[3-(morpholine-4-carbonyl)phenyl]-1H-pyrrolo[2,3-b]pyridin-5-yl]-1H-pyrazole-5-carboxamide] | < 10 µM |
| Cc1nn(C2CCN(C(=O)C3CC3)CC2)cc1-c1cc2cc(NC(=O)c3n[nH]c(C)c3C)cnc2[nH]1 [P-2203, N-(2-(1-(1-(cyclopropanecarbonyl)piperidin-4-yl)-3-methyl-1H-pyrazol-4-yl)-1H-pyrrolo[2,3-b]pyridin-5-yl)-4,5-dimethyl-1H-pyrazole-3-carboxamide] | < 10 µM |
| O=C(Nc1cnc2[nH]c(-c3ccccc3)cc2c1)c1n[nH]c(C(F)F)c1Cl [P-2237, 4-chloro-5-(difluoromethyl)-N-(2-phenyl-1H-pyrrolo[2,3-b]pyridin-5-yl)-1H-pyrazole-3-carboxamide] | < 10 µM |
| Cc1[nH]nc(C(=O)Nc2cnc3[nH]c(-c4cnn(C5CCN(C(=O)C6CC6)CC5)c4C)cc3c2)c1C [P-2200, N-(2-(1-(1-(cyclopropanecarbonyl)piperidin-4-yl)-5-methyl-1H-pyrazol-4-yl)-1H-pyrrolo[2,3-b]pyridin-5-yl)-4,5-dimethyl-1H-pyrazole-3-carboxamide] | < 10 µM |
| Cc1ncccc1-c1cc2cc(NC(=O)c3[nH]nc(C)c3C)cnc2[nH]1 [P-2136, 3,4-dimethyl-N-[2-(2-methyl-3-pyridyl)-1H-pyrrolo[2,3-b]pyridin-5-yl]-1H-pyrazole-5-carboxamide] | < 10 µM |
| Cc1nn(C2CCNCC2)cc1-c1cc2cc(NC(=O)c3n[nH]c(C)c3C)cnc2[nH]1 [P-2201, 4,5-dimethyl-N-(2-(3-methyl-1-(piperidin-4-yl)-1H-pyrazol-4-yl)-1H-pyrrolo[2,3-b]pyridin-5-yl)-1H-pyrazole-3-carboxamide] | < 10 µM |
| Cc1[nH]nc(C(=O)Nc2cnc3[nH]c(-c4ccnc(NC5CC5)c4)cc3c2)c1C [P-2204, N-(2-(2-(cyclopropylamino)pyridin-4-yl)-1H-pyrrolo[2,3-b]pyridin-5-yl)-4,5-dimethyl-1H-pyrazole-3-carboxamide] | < 10 µM |
| Cc1[nH]nc(C(=O)Nc2cnc3[nH]c(-c4ccc(C5CC5)nc4)cc3c2)c1C [P-2255, N-(2-(6-cyclopropylpyridin-3-yl)-1H-pyrrolo[2,3-b]pyridin-5-yl)-4,5-dimethyl-1H-pyrazole-3-carboxamide] | < 10 µM |
| Cc1[nH]nc(C(=O)Nc2cnc3[nH]c(-c4ccnc(C(=O)N5CCCC5)c4)cc3c2)c1C [P-2218, 4,5-dimethyl-N-(2-(2-(pyrrolidine-1-carbonyl)pyridin-4-yl)-1H-pyrrolo[2,3-b]pyridin-5-yl)-1H-pyrazole-3-carboxamide] | < 10 µM |
| Cc1[nH]nc(C(=O)Nc2cnc3[nH]c(-c4ccnc(C(=O)N5CCN(C)CC5)c4)cc3c2)c1C [P-2217, 4,5-dimethyl-N-(2-(2-(4-methylpiperazine-1-carbonyl)pyridin-4-yl)-1H-pyrrolo[2,3-b]pyridin-5-yl)-1H-pyrazole-3-carboxamide] | < 10 µM |
| O=C(Nc1cnc2[nH]c(-c3ccccc3)cc2c1)c1n[nH]c(Cl)c1C(F)(F)F [P-2233, 5-chloro-N-(2-phenyl-1H-pyrrolo[2,3-b]pyridin-5-yl)-4-(trifluoromethyl)-1H-pyrazole-3-carboxamide] | < 10 µM |
| Cc1[nH]nc(C(=O)Nc2cnc3[nH]cc(-c4cccc(N5CCNCC5)n4)c3c2)c1C [P-2190, 4,5-dimethyl-N-(3-(6-(piperazin-1-yl)pyridin-2-yl)-1H-pyrrolo[2,3-b]pyridin-5-yl)-1H-pyrazole-3-carboxamide] | < 10 µM |
| COc1ncccc1-c1cc2cc(NC(=O)c3n[nH]c(C)c3C)cnc2[nH]1 [P-2238, N-(2-(2-methoxypyridin-3-yl)-1H-pyrrolo[2,3-b]pyridin-5-yl)-4,5-dimethyl-1H-pyrazole-3-carboxamide] | < 10 µM |
| Cc1n[nH]c(C(=O)Nc2cnc3[nH]c(-c4cccc5c4OCCO5)cc3c2)c1C [P-2305, N-[2-(2,3-dihydro-1,4-benzodioxin-5-yl)-1H-pyrrolo[2,3-b]pyridin-5-yl]-3,4-dimethyl-1H-pyrazole-5-carboxamide] | < 10 µM |
| COc1cccc(-c2cc3cc(NC(=O)c4[nH]nc(C)c4C)cnc3[nH]2)c1 [P-2098, N-[2-(3-methoxyphenyl)-1H-pyrrolo[2,3-b]pyridin-5-yl]-3,4-dimethyl-1H-pyrazole-5-carboxamide] | < 10 µM |
| Cc1[nH]nc(C(=O)Nc2cnc3[nH]c(-c4cnn(C5CNC5)c4C)cc3c2)c1C [P-2197, N-(2-(1-(azetidin-3-yl)-5-methyl-1H-pyrazol-4-yl)-1H-pyrrolo[2,3-b]pyridin-5-yl)-4,5-dimethyl-1H-pyrazole-3-carboxamide] | < 10 µM |
| Cc1[nH]nc(C(=O)Nc2cnc3[nH]c(-c4ccc(F)c(C#N)c4F)cc3c2)c1C [P-2261, N-(2-(3-cyano-2,4-difluorophenyl)-1H-pyrrolo[2,3-b]pyridin-5-yl)-4,5-dimethyl-1H-pyrazole-3-carboxamide] | < 10 µM |

Molecular target: c-kit mutant D816V (Homo sapiens (Human), UniProt P10721, D816V/DEL694-753)
Sequence (P10721 other isoform, or with tags, fused parts or gaps D816V/del 694-753): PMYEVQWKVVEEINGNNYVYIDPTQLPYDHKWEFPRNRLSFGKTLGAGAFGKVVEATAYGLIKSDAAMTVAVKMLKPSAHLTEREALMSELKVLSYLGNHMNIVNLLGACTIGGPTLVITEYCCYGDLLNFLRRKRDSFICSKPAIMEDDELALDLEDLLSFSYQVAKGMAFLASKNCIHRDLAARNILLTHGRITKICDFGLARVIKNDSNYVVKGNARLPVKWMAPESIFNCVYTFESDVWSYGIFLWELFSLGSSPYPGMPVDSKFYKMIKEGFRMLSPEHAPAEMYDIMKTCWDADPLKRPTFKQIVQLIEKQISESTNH
Test: c-Kit mutant D816V biochemical assay (AlphaScreen)
Conditions: c-kit D816V biochemical inhibitory activity
Protocol: The c-kit mutant D816V (or kinase domain thereof) is an active kinase in AlphaScreen. IC50 values are determined with respect to inhibition of c-Kit mutant D816V kinase activity, where inhibition of phosphorylation of a peptide substrate is measured as a function of compound concentration. Compounds to be tested were dissolved in DMSO to a concentration of 20 mM. These were diluted 30 μl into 120 μl of DMSO (4 mM) and 1 μl was added to an assay plate. These were then serially diluted 1:3 (50 μl to 100 μl DMSO) for a total of 8 points. Plates were prepared such that each kinase reaction is 20 μl in 1× kinase buffer (25 mM HEPES, pH 7.2, 8 mM MgCl2, 2 mM MnCl2, 50 mM NaCl, 0.01% Brij, 1 mM DTT, 0.01% BSA), 5% DMSO and 10 μM ATP. Substrate was 30 nM biotin-(E4Y)10 (EMD Millipore, Cat#12-440). C-kit mutant D816V kinase was at 0.75 ng per sample. After incubation of the kinase reaction for 30 minutes at room temperature, 5 μl of donor beads (Streptavidin coated beads (Perkin Elmer Life Science) final concentration 7.5 μg/ml) in stop buffer (25 mM Hepes pH 7.5, 100 mM EDTA, 0.01% BSA) was added, the sample was mixed and incubated for 20 minutes at room temperature before adding 5 μl of acceptor beads (PY20 coated beads (Perkin Elmer Life Science) final concentration 7.5 ug/ml) in stop buffer. The samples were incubated for 60 minutes at room temperature and the signal per well was read on EnVision reader. Phosphorylated substrate results in binding of the PY20 antibody and association of the donor and acceptor beads such that signal correlates with kinase activity. The signal vs. compound concentration was used to determine the IC50.
Recombinant c-kit mutant D816V (residues 551-934, kinase insertion domain residues 694-753 deleted) with a 6x-histidine N-terminal tag was expressed in E. coli Arctic Express (DE3) RIL (Stratagene). Cells were grown in Terrific Broth (TB) media to an OD600 of 0.6 at 37° C. at which temperature was reduced to 10° C., protein was induced with 1.0 mM IPTG for 18 hours and harvested by centrifugation at 8000×g for 20 minutes. Cells were re-suspended in 0.1M KPO4 pH 8.0, 250 mM NaCl, 10% Glycerol, 0.75% NP-40, 25 mM Imidazole, 5 mM BME with 0.2 mg/ml Lysosyme, 2.0 mM PMSF, 25 μg/ml DNAse I, incubated in ice for 30 minutes and lyzed with a cell disruptor (MicroFluidics). The lysate was clarified by centrifugation at 20,000×g for 2 hours. The protein was captured with Talon resin (Clontech). Contaminating proteins were washed off with 25 mM Tris-HCl pH 8.3, 250 mM NaCl, 15% Glycerol, 1% Triton X-100, and protein eluted using 100 mM EDTA. The protein was further purified using Gel Filtration column 26/600 Superdex 200 (GE) in 50 mM Tris-HCl, pH 8.0, 250 mM NaCl, 15% Glycerol, 5 mM BME. The protein was aliquoted and flash-frozen in liquid Nitrogen.

| Compound | IC50 |
| --- | --- |
| O=C(Nc1cnc2[nH]c(-c3ccccc3)cc2c1)c1cc(C2CC2)n[nH]1 [P-2009, 3-cyclopropyl-N-(2-phenyl-1H-pyrrolo[2,3-b]pyridin-5-yl)-1H-pyrazole-5-carboxamide] | 10 to 200 µM |
| Cc1[nH]nc(NC(=O)c2cnc3[nH]c(-c4ccccc4)cc3c2)c1C [P-2071] | 10 to 200 µM |
| N#CCc1cccc(C(=O)Nc2cnc3[nH]c(-c4ccc(F)cc4)cc3c2)c1 [P-2021, 3-(cyanomethyl)-N-[2-(4-fluorophenyl)-1H-pyrrolo[2,3-b]pyridin-5-yl]benzamide] | 10 to 200 µM |
| O=C(Nc1cnc2[nH]c(-c3ccccc3)cc2c1)c1ccncn1 [P-2011, N-(2-phenyl-1H-pyrrolo[2,3-b]pyridin-5-yl)pyrimidine-4-carboxamide] | 10 to 200 µM |
| Cc1onc(C(=O)Nc2cnc3[nH]c(-c4ccccc4)cc3c2)c1C [P-2017, 4,5-dimethyl-N-(2-phenyl-1H-pyrrolo[2,3-b]pyridin-5-yl)isoxazole-3-carboxamide] | 10 to 200 µM |
| N#Cc1cccc(C(=O)Nc2cnc3[nH]c(-c4ccc(F)cc4)cc3c2)c1 [P-2025, 3-cyano-N-[2-(4-fluorophenyl)-1H-pyrrolo[2,3-b]pyridin-5-yl]benzamide] | 10 to 200 µM |
| NC(=O)c1cccc(NC(=O)c2cnc3[nH]c(-c4ccccc4)cc3c2)c1 [P-2003, N-(3-carbamoylphenyl)-2-phenyl-1H-pyrrolo[2,3-b]pyridine-5-carboxamide] | 10 to 200 µM |
